PubChem BioAssay AID1259407 (Chemical Carcinogenesis Research Information System (CCRIS), 2018)
Active and inactive are the calls of the source. No rule for the calls is given here.

Tested on: CCRIS mutagenicity, Ames/micronucleus/aberration tests
Test: CCRIS mutagenicity studies
[1] = Test System: AMES SALMONELLA TYPHIMURIUM, Strain/Indicator: TA100, Metabolic Activation: NONE, Method: STANDARD PLATE
[2] = Test System: AMES SALMONELLA TYPHIMURIUM, Strain/Indicator: TA1537, Metabolic Activation: NONE, Method: STANDARD PLATE

Measured: mutagenic call

C[C@H](CCC(=O)O)[C@H]1CC[C@H]2[C@@H]3CCc4cc(O)ccc4[C@H]3CC[C@]12C
inactive: Test System: AMES SALMONELLA TYPHIMURIUM, Strain/Indicator: TA98, Metabolic Activation: NONE, Method: PREINCUBATION inactive; negative | Test System: AMES SALMONELLA TYPHIMURIUM, Strain/Indicator: TA98, Method: PREINCUBATION inactive; negative | Test System: AMES SALMONELLA TYPHIMURIUM, Strain/Indicator: TA100, Method: PREINCUBATION inactive; negative

C[n+]1ccn(CCC[n+]2ccc(C(N)=O)cc2)c1/C=N/O
inactive: Test System: AMES SALMONELLA TYPHIMURIUM, Strain/Indicator: TA97, Metabolic Activation: NONE, Method: STANDARD PLATE inactive; negative | Test System: AMES SALMONELLA TYPHIMURIUM, Strain/Indicator: TA97, Metabolic Activation: S-9, Method: STANDARD PLATE inactive; negative | [1] inactive; negative | Test System: AMES SALMONELLA TYPHIMURIUM, Strain/Indicator: TA100, Metabolic Activation: S-9, Method: STANDARD PLATE inactive; negative | Test System: AMES SALMONELLA TYPHIMURIUM, Strain/Indicator: TA104, Metabolic Activation: NONE, Method: STANDARD PLATE inactive; negative | Test System: AMES SALMONELLA TYPHIMURIUM, Strain/Indicator: TA104, Metabolic Activation: S-9, Method: STANDARD PLATE inactive; negative | [2] inactive; negative | Test System: AMES SALMONELLA TYPHIMURIUM, Strain/Indicator: TA1537, Metabolic Activation: S-9, Method: STANDARD PLATE inactive; negative | Test System: AMES SALMONELLA TYPHIMURIUM, Strain/Indicator: TA1538, Metabolic Activation: NONE, Method: STANDARD PLATE inactive; negative | Test System: AMES SALMONELLA TYPHIMURIUM, Strain/Indicator: TA1538, Metabolic Activation: S-9, Method: STANDARD PLATE inactive; negative

C=CC(=O)OCC(CC)(COC(=O)C=C)COC(=O)C=C
inactive: End Point: In vivo micronucleus, Test System: Peripheral blood normochromatic erythrocytes, Species: Mouse, Strain/Sex: B6C3F1/Female, Route: Dermal inactive; negative | End Point: In vivo micronucleus, Test System: Peripheral blood normochromatic erythrocytes, Species: Mouse, Strain/Sex: B6C3F1/Male, Route: Dermal inactive; negative | End Point: In vivo micronucleus, Test System: Peripheral blood normochromatic erythrocytes, Species: Mouse, Strain/Sex: FVB.N/TgN (v-Ha-ras) Tg.AC hemizygous/Female, Route: Dermal inactive; negative, purity 80% | End Point: In vivo micronucleus, Test System: Peripheral blood normochromatic erythrocytes, Species: Mouse, Strain/Sex: FVB.N/TgN (v-Ha-ras) Tg.AC hemizygous/Male, Route: Dermal inactive; negative | Test System: AMES SALMONELLA TYPHIMURIUM, Strain/Indicator: TA98, Metabolic Activation: HAMSTER, LIVER, S-9, AROCLOR 1254, Method: STANDARD PLATE inactive; negative | Test System: AMES SALMONELLA TYPHIMURIUM, Strain/Indicator: TA98, Metabolic Activation: NONE, Method: STANDARD PLATE inactive; negative | Test System: AMES SALMONELLA TYPHIMURIUM, Strain/Indicator: TA98, Metabolic Activation: RAT, LIVER, S-9, AROCLOR 1254, Method: STANDARD PLATE inactive; negative | Test System: AMES SALMONELLA TYPHIMURIUM, Strain/Indicator: TA100, Metabolic Activation: HAMSTER, LIVER, S-9, AROCLOR 1254, Method: STANDARD PLATE inactive; negative | [1] inactive; negative | Test System: AMES SALMONELLA TYPHIMURIUM, Strain/Indicator: TA100, Metabolic Activation: RAT, LIVER, S-9, AROCLOR 1254, Method: STANDARD PLATE inactive; negative | Test System: AMES SALMONELLA TYPHIMURIUM, Strain/Indicator: TA1535, Metabolic Activation: NONE, Method: STANDARD PLATE inactive; negative | Test System: AMES SALMONELLA TYPHIMURIUM, Strain/Indicator: TA1537, Metabolic Activation: HAMSTER, LIVER, S-9, AROCLOR 1254, Method: STANDARD PLATE inactive; negative | [2] inactive; negative | Test System: AMES SALMONELLA TYPHIMURIUM, Strain/Indicator: TA1537, Metabolic Activation: RAT, LIVER, S-9, AROCLOR 1254, Method: STANDARD PLATE inactive; negative | Test System: CHINESE HAMSTER OVARY, Strain/Indicator: CHO-K1-BH4 (HGPRT)/6-THIOGUANINE, Metabolic Activation: NONE, Method: SUSPENSION/PLATE inactive; negative | Test System: CHINESE HAMSTER OVARY, Strain/Indicator: CHO-K1-BH4 (HGPRT), Metabolic Activation: NONE, Method: MONOLAYER inactive; negative | Test System: MOUSE LYMPHOMA, Strain/Indicator: L5178Y (TK+/TK-), Metabolic Activation: RAT, LIVER, S-9, AROCLOR 1254, Method: SUSPENSION/PLATE inactive; negative
active: Test System: AMES SALMONELLA TYPHIMURIUM, Strain/Indicator: TA1535, Metabolic Activation: HAMSTER, LIVER, S-9, AROCLOR 1254 (5-20%), Method: STANDARD PLATE active; positive | Test System: AMES SALMONELLA TYPHIMURIUM, Strain/Indicator: TA1535, Metabolic Activation: HAMSTER, LIVER, S-9, AROCLOR 1254, Method: STANDARD PLATE active; positive | Test System: CHINESE HAMSTER OVARY, Strain/Indicator: CHO-K1-BH4 (HGPRT), Metabolic Activation: NONE active; positive | Test System: CHINESE HAMSTER OVARY, Strain/Indicator: CHO-K1-BH4 (HGPRT), Metabolic Activation: NONE, Method: SUSPENSION/PLATE active; positive | Test System: Mouse lymphoma, Strain/Indicator: L5178Y (tk+/tk-), Metabolic Activation: None, Method: Suspension/plate active; positive | Test System: Mouse lymphoma, Strain/Indicator: L5178Y (tk+/tk-), Metabolic Activation: Rat, Liver, S-9, Aroclor 1254, Method: Suspension/plate active; positive
